Here are results for two compounds from ChEMBL document CHEMBL4387741, “Optimization of novel reversible Bruton's tyrosine kinase inhibitors identified using Tethering-fragment-based screens” (Bioorg Med Chem, 2019).

What is called inhibition is how much of the control response was suppressed. One may read the clearance as the volume of plasma or blood freed of the substance per unit of time. Low readings indicate inefficient removal, high ones efficient removal.

Data set [1] addresses SRSF protein kinase 3 (Homo sapiens) (UniProt Q9UPE1). Nature of the data set: Inhibition of wild-type human partial length SRPK3 (P41 to P567 residues) expressed in bacterial expression system at 1 uM by Kinomescan method relative to control.
For data set [2], the target named is Cyclin-dependent kinase 5 (Homo sapiens) (UniProt Q00535). Nature of the data set: Inhibition of wild-type human full length CDK5 (M1 to P292 residues) expressed in bacterial expression system at 1 uM by Kinomescan method relative to control.
Data set [3] addresses SRSF protein kinase 2 (Homo sapiens) (UniProt P78362). The data set can be described thus: Inhibition of wild-type human full length SRPK2 (M1 to S686 residues) expressed in bacterial expression system at 1 uM by Kinomescan method relative to control.
The target in data set [4] is Casein kinase I isoform delta (Homo sapiens) (UniProt P48730). Nature of the data set: Inhibition of wild-type human full length CSNK1D (M1 to K409 residues) expressed in bacterial expression system at 1 uM by Kinomescan method relative to control.
The target in data set [5] is Serine/threonine-protein kinase mTOR (Homo sapiens) (UniProt P42345). Nature of the data set: Inhibition of wild-type human partial length MTOR (L1382 to W2549 residues) expressed in mammalian expression system at 1 uM by Kinomescan method relative to control.
Data set [6] relates to Epidermal growth factor receptor (Homo sapiens), P00533 [G719C]. The data set can be described thus: Inhibition of human partial length EGFR G719C mutant (R669 to V1011 residues) expressed in bacterial expression system at 1 uM by Kinomescan method relative to control.
In data set [7] the target is Mitogen-activated protein kinase kinase kinase 10 (Homo sapiens) (UniProt Q02779). Nature of the data set: Inhibition of wild-type human partial length MLK2 (V52 to W380 residues) expressed in bacterial expression system at 1 uM by Kinomescan method relative to control.
Mitogen-activated protein kinase kinase kinase 10 (Homo sapiens), sequence (Q02779 whole entry, looked up, the tested form may be a part): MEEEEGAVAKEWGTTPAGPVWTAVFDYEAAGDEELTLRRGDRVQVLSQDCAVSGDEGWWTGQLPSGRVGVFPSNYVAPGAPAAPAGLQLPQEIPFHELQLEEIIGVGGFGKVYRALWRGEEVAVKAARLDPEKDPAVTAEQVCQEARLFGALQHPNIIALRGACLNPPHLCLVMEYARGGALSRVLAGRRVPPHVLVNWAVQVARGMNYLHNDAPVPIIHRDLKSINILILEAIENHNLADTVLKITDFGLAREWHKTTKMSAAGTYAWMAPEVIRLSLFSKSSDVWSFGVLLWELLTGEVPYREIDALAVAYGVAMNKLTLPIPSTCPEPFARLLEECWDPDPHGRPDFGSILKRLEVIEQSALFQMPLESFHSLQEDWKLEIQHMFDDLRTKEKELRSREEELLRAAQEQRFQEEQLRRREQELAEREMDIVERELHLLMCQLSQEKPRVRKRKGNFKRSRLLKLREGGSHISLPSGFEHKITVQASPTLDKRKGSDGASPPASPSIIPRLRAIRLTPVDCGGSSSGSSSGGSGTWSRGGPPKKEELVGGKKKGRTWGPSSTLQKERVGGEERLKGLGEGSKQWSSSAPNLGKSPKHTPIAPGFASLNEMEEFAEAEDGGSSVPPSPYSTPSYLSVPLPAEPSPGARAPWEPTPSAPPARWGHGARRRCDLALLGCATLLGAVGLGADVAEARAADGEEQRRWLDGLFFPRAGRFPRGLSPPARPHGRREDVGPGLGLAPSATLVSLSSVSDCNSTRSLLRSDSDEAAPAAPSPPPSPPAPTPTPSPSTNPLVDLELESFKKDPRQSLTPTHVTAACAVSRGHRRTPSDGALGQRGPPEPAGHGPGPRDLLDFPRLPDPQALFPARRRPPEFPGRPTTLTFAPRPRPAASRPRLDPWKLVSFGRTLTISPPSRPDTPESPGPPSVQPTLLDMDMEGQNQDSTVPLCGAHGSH
The target of data set [8] is Tyrosine-protein kinase HCK (Homo sapiens) (UniProt P08631). Nature of the data set: Inhibition of wild-type human full length HCK (M22 to P526 residues) expressed in bacterial expression system at 1 uM by Kinomescan method relative to control.
Data set [9] has as its target Muscle, skeletal receptor tyrosine-protein kinase (Homo sapiens) (UniProt O15146). The data set can be described thus: Inhibition of wild-type human partial length MUSK (M553 to V869 residues) expressed in bacterial expression system at 1 uM by Kinomescan method relative to control.
Data set [10] has as its target Fibroblast growth factor receptor 2 (Homo sapiens) (UniProt P21802). The data set can be described thus: Inhibition of wild-type human partial length FGFR2 (D457 to E769 residues) expressed in bacterial expression system at 1 uM by Kinomescan method relative to control.
Data set [11] addresses Serine/threonine-protein kinase 17B (Homo sapiens) (UniProt O94768). The data set can be described thus: Inhibition of wild-type human full length DRAK2 (M1 to C372 residues) expressed in bacterial expression system at 1 uM by Kinomescan method relative to control.
The nature of data set [12]: Plasma clearance in Sprague-Dawley rat at 1 mg/kg, iv. It is filed as ADME, organism-based.
The target of data set [13] is Glycogen synthase kinase-3 alpha (Homo sapiens) (UniProt P49840). Nature of the data set: Inhibition of wild-type human full length GSK3A (M1 to S483 residues) expressed in bacterial expression system at 1 uM by Kinomescan method relative to control.
The target of data set [14] is Activin receptor type-1 (Homo sapiens) (UniProt Q04771). Nature of the data set: Inhibition of wild-type human ACVR1 (C188 to C509 residues) expressed in bacterial expression system at 1 uM by Kinomescan method relative to control.
The target of data set [15] is Mitogen-activated protein kinase kinase kinase 4 (Homo sapiens) (UniProt Q9Y6R4). Nature of the data set: Inhibition of wild-type human partial length MAP3K4 (G1319 to E1608 residues) expressed in bacterial expression system at 10 uM by Kinomescan method relative to control.
Data set [16] deals with Death-associated protein kinase 2 (Homo sapiens) (UniProt Q9UIK4). Nature of the data set: Inhibition of wild-type human full length DAPK2 (M1 to S370 residues) expressed in bacterial expression system at 10 uM by Kinomescan method relative to control.
Data set [17] has as its target Macrophage colony-stimulating factor 1 receptor (Homo sapiens) (UniProt P07333). The data set can be described thus: Inhibition of wild-type human partial length CSF1R (I564 to S939 residues) expressed in bacterial expression system at 10 uM by Kinomescan method relative to control.
For data set [18], the target named is Cyclin-dependent kinase 4 (Homo sapiens) (UniProt P11802). The data set can be described thus: Inhibition of wild-type human full length CDK4 (M1 to E303 residues) expressed in mammalian expression system at 10 uM by Kinomescan method relative to control.
The target of data set [19] is Serine/threonine-protein kinase MRCK gamma (Homo sapiens) (UniProt Q6DT37). The data set can be described thus: Inhibition of wild-type human partial length DMPK2 (S46 to S408 residues) expressed in bacterial expression system at 10 uM by Kinomescan method relative to control.
The target of data set [20] is Ribosomal protein S6 kinase alpha-3 (Homo sapiens) (UniProt P51812). The data set can be described thus: Inhibition of wild-type human partial length C-terminal RSK2 kinase domain 2 (V402 to S715 residues) expressed in mammalian expression system at 10 uM by Kinomescan method relative to control.
For data set [21], the target named is Mitogen-activated protein kinase kinase kinase 11 (Homo sapiens) (UniProt Q16584). The data set can be described thus: Inhibition of wild-type human partial length MLK3 (I77 to W399 residues) expressed in bacterial expression system at 10 uM by Kinomescan method relative to control.
Mitogen-activated protein kinase kinase kinase 11 (Homo sapiens), sequence (Q16584 whole entry, looked up, the tested form may be a part): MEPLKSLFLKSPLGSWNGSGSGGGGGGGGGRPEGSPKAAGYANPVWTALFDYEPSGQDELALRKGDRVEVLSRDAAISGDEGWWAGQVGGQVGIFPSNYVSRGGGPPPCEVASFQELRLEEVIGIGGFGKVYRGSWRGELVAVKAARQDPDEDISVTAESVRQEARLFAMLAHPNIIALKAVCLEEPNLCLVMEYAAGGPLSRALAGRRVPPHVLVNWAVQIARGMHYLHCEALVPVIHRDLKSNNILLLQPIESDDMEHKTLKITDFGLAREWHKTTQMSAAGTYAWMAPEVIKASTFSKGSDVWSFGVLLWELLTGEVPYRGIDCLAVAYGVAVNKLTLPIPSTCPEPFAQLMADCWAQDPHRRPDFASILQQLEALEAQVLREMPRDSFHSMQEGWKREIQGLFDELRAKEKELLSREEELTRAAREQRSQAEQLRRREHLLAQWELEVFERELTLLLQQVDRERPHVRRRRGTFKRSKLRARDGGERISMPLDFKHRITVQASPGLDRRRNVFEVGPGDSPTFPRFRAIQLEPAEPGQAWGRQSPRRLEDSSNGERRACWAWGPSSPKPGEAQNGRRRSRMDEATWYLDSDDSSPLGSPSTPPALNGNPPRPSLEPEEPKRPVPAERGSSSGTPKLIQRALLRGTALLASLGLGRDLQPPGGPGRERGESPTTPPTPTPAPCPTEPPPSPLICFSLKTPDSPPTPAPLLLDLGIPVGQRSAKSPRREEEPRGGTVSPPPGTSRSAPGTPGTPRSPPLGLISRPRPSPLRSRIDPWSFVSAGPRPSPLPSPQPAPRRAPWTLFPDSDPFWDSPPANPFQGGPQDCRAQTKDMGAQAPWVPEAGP
For data set [22], the target named is Serine/threonine-protein kinase haspin (Homo sapiens) (UniProt Q8TF76). The data set can be described thus: Inhibition of wild-type human partial length HASPIN (I452 to K798 residues) expressed in mammalian expression system at 10 uM by Kinomescan method relative to control.
Data set [23] concerns Mast/stem cell growth factor receptor Kit (Homo sapiens), P10721 [V559D]. The data set can be described thus: Inhibition of human partial length KIT V559D mutant (Y545 to D952 residues) expressed in bacterial expression system at 10 uM by Kinomescan method relative to control.
For data set [24], the target named is Serine/threonine-protein kinase LATS2 (Homo sapiens) (UniProt Q9NRM7). The data set can be described thus: Inhibition of wild-type human partial length LATS2 (Q641 to V1088 residues) expressed in mammalian expression system at 10 uM by Kinomescan method relative to control.
For data set [25], the target named is Serine/threonine-protein kinase 36 (Homo sapiens) (UniProt Q9NRP7). Nature of the data set: Inhibition of wild-type human partial length STK36 (M1 to T271 residues) expressed in bacterial expression system at 10 uM by Kinomescan method relative to control.
Serine/threonine-protein kinase 36 (Homo sapiens), sequence (Q9NRP7 whole entry, the tested form may be a part): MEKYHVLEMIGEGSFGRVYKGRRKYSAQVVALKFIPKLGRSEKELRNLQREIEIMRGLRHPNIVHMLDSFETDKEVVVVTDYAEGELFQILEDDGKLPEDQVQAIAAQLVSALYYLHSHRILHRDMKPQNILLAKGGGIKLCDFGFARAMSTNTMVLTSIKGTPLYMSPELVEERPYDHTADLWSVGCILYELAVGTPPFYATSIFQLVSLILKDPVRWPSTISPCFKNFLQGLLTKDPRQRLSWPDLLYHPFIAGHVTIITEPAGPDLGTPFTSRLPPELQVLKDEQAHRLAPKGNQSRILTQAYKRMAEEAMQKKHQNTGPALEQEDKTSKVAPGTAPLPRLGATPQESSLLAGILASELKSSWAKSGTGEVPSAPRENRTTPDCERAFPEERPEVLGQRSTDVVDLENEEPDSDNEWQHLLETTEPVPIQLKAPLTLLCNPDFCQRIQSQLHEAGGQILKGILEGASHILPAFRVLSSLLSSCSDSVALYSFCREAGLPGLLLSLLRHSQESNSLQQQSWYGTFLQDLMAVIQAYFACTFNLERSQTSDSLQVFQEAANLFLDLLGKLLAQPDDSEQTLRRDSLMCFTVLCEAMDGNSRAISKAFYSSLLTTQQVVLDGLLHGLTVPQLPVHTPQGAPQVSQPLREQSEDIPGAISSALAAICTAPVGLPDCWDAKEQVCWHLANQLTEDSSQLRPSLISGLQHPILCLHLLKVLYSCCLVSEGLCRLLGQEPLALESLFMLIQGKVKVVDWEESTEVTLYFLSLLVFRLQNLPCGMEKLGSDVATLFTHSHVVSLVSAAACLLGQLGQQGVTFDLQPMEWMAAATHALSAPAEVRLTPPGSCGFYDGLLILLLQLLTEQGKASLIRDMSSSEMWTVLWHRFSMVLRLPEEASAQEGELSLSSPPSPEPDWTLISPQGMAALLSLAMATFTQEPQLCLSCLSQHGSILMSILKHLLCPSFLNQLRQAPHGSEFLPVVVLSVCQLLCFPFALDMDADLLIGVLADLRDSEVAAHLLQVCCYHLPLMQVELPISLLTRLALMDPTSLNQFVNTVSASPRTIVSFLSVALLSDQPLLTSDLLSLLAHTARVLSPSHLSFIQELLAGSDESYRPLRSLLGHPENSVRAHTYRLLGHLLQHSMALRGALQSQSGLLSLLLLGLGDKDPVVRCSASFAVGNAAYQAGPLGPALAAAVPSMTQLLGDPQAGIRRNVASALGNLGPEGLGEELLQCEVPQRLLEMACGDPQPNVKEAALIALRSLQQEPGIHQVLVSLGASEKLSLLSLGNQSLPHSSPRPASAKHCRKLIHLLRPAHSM
Data set [26] has as its target Serine/threonine-protein kinase Nek7 (Homo sapiens) (UniProt Q8TDX7). Nature of the data set: Inhibition of wild-type human full length NEK7 (M1 to S302 residues) expressed in bacterial expression system at 10 uM by Kinomescan method relative to control.
In data set [27] the test system is Epidermal growth factor receptor (Homo sapiens), P00533 [UNDEFINED MUTATION]. Nature of the data set: Inhibition of human partial length EGFR S752-I759del mutant expressed in bacterial expression system at 10 uM by Kinomescan method relative to control.
Epidermal growth factor receptor (Homo sapiens), P00533 [UNDEFINED MUTATION], sequence (P00533 whole entry, looked up, stated change not applied, the tested form may be a part): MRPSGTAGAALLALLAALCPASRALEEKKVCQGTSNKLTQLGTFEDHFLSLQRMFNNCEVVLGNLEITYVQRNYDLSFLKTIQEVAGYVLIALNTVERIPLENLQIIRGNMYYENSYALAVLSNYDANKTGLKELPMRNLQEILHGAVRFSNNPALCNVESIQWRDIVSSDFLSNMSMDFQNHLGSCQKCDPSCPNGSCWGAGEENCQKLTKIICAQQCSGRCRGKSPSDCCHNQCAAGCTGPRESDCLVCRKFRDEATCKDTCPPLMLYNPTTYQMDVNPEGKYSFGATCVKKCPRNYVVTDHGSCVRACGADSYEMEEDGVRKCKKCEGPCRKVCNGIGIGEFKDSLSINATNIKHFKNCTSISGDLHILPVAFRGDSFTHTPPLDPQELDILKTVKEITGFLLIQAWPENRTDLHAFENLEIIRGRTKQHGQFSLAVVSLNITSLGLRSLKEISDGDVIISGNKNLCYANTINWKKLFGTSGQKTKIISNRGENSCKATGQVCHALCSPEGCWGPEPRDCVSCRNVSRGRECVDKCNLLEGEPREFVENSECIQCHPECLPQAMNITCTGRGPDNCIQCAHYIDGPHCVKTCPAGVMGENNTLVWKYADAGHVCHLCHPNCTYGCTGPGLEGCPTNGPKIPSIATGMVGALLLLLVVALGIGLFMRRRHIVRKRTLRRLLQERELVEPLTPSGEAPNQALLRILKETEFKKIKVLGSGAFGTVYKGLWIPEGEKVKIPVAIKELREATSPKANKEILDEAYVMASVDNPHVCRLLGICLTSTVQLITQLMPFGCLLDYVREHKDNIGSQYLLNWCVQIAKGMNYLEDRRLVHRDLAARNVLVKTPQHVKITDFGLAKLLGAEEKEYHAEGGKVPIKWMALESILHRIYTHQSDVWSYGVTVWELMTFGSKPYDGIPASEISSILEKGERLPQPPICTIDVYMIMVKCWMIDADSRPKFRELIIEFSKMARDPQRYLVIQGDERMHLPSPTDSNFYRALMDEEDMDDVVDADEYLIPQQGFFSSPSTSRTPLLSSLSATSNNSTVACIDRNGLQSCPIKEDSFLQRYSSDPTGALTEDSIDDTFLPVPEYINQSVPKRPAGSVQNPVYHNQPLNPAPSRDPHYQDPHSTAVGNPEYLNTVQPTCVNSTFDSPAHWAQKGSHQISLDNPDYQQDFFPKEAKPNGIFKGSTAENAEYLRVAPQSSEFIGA
Data set [28] concerns the target Mitogen-activated protein kinase 1 (Homo sapiens) (UniProt P28482). Nature of the data set: Inhibition of wild-type human full length ERK2 (M1 to S360 residues) expressed in bacterial expression system at 10 uM by Kinomescan method relative to control.

SRSF protein kinase 3 (Homo sapiens), sequence (Q9UPE1 whole entry, the tested form may be a part): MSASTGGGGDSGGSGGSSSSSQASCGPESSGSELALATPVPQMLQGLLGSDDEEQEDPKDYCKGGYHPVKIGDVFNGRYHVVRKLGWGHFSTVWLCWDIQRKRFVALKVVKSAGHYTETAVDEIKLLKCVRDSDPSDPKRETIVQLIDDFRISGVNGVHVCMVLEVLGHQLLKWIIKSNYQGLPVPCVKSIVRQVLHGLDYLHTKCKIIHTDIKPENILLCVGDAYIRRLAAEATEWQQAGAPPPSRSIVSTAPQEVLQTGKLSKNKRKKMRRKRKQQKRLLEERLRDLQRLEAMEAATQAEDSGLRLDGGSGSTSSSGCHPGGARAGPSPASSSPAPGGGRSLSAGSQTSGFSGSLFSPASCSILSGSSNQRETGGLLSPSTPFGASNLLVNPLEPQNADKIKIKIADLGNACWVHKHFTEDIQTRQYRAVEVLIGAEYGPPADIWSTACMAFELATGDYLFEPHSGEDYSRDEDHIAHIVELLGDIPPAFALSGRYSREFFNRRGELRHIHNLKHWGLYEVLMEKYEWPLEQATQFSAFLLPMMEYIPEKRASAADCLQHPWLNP

Regarding `O=C(Nc1cccc([C@@H]2CN(c3ncnc4[nH]ccc34)CCN2CCO)c1)Nc1c(F)cccc1N1CCCC1`, the inhibition in [1] worked out at 68%; in data set [2], 68%; in data set [3] it was 88%; in [4], 100%; in data set [5], 96%; in data set [6], 100%. The inhibition in data set [7] came out at 74%; in data set [8] it was 76%; in [9] it was 100%; in [10] it was 54%; in data set [11] it was 73%; in [13], 100%. This compound showed an inhibition in data set [14] of 100%. Besides, in data set [12], the clearance was determined as 6.2 mL/min/kg.

Regarding `O=C(Nc1cccc([C@H]2CCCN(c3ncnc4[nH]ccc34)C2)c1)Nc1ccccc1N1CCCC1`, the inhibition in data set [15] came to 87%; in [16], 7.1%; in [17], 20%; in data set [18], 100%; in [19] it was 62%; in data set [20] it was 100%. For the same compound, the inhibition in data set [21] was 85%; in data set [22], 63%; in data set [23], 0.15%; in [24], 14%; in data set [25] it was 90%; in data set [26], 72%. For the same compound, the inhibition worked out at 78% in data set [27] and 100% in [28].
